# Reference: patent publication US20210040054A1, “Substituted Hydrophobic Benzene Sulfonamide Thiazole Compounds for Use in Treating Cancer” (INSERM (Institut National de la Sante et de la Recherche …, priority 2015, published 2021)
# Entries after “also recorded” stand apart in the source; their conditions may differ.
# Tests used:
# Assay type in all cases: cell-based
# [1] = test system: resistant K562 cells; experiment: Cell viability on resistant CML cells (FIG. 2b); settings: compared with Imatinib
# Description: (§1) Cells were seeded in 6-well plates (60000 cells/well), depleted and incubated with compounds for the times indicated. Then cells were detached in the presence of 200 μl of HyQTase (Thermo) and 2 ml of RPMI 1640 Glutamax (Gibco) was added to the cell solution. 10 μl of this solution was stained for 1 minute with 10 μl of 0.4% trypan blue before counting with a Malassez chamber.
# (§2) FIG. 1: the Effect of Compounds Ia-7, IIIa-3, IIIa-1, IIIa-2, 11a-2, 11a-9, Ia-4, Ha-11, IIa-12, IIa-6, Compared to Ia-1, on Cell Viability on A375 Melanoma Cells. Cell viability was assessed by measuring the number of cells alive in samples of different cells. The measure of cell viability as performed by cell counting using the trypan blue exclusion method. Results were expressed as the percentage of cells alive relatively to the number of living cells in the presence of DMSO, which corresponds to the negative control associated to the 100% value. […] The very active compounds IIa-2, IIIa-1 and IIIa-3 substituted in para position respectively with an octyne, hexyl and octyl chain, were selected to investigate their potential to promote cell death on resistant melanoma cell lines as well as other cancer cell lines. FIG. 2a. Effect of Compounds 11a-2, IIIa-1 and IIIa-3 on Cell Viability on Melanoma Cells. PLX4032 was Used as a Positive Control. […] FIG. 2b. Effect of Compounds IIa-2, IIIa-1 and IIIa-3 on Cell Viability on CML Cells. Imatinib was Used as a Positive Control. The activity of compounds IIa-2, IIIa-1 and IIIa-3 against CML cells was also evaluated. […] FIG. 2c. Effect of Compounds IIa-2, IIIa-1 and IIIa-3 on Cell Viability on Pancreatic Cancer Cells. Gemcitabine was Used as a Positive Control. The compounds IIa-2, IIIa-1 and IIIa-3 were next evaluated against pancreatic cells, BxPC3 (sensitive) and MiaPACA cell lines (resistant to the nucleoside analog Gemcitabine).
# [2] = test system: sensitive K562 CML cells; experiment: Cell viability on sensitive CML cells (FIG. 2b); settings: compared with Imatinib
# Description: as §1, §2
# [3] = test system: MiaPACA cell lines (resistant to the nucleoside analog Gemcitabine); experiment: Cell viability on Gemcitabine-resistant pancreatic cancer cells (FIG. 2c)
# Description: as §1, §2
# [4] = test system: sensitive melanoma cell lines; experiment: Cell viability on sensitive melanoma cell lines (FIG. 2a); settings: 10 μM
# Description: (§3) Different melanoma cell lines were purchased from American Tissue Culture Collection (Molsheim, France). Cells were grown in RPMI 1640 (A375, WM9 and patient melanoma cells) or in DMEM medium (Mel501) supplemented with 10% FCS and penicillin/streptomycin (100 U/ml/[…]) at 37° C. and 5% CO2.
# as §1
# as §2, with “Effect of Compounds IIa-2, IIIa-1 and IIIa-3 on Cell Viability on Pancreatic Cancer Cells. Gemcitabine was Used as a Positive Control.” left out
# [5] = test system: A375 melanoma cells; experiment: Cell viability, trypan blue exclusion cell counting (FIG. 1); settings: compared to reference compound Ia-1
# Description: as §3, §1
# as §2, with “Effect of Compounds IIa-2, IIIa-1 and IIIa-3 on Cell Viability on Pancreatic Cancer Cells. Gemcitabine was Used as a Positive Control.” left out
# [6] = test system: BxPC3 (sensitive); experiment: Cell viability on sensitive pancreatic cancer cells (FIG. 2c); settings: compared with Gemcitabine
# Description: as §1, §2
# [7] = test system: resistant A375 R5C3 an A375 RIV cell lines; experiment: Cell viability on resistant melanoma cell lines (FIG. 2a); settings: resistant A375 R5C3 and A375 RIV cell lines; 10 μM
# Description: as §3, §1, §2
# [8] = test system: Normal human fibroblasts; experiment: Viability of normal fibroblasts (FIG. 3); settings: different concentration of IIa-2
# Description: Normal human fibroblasts prepared from foreskins of newborns were grown under 5% CO2 at 37° C. in DMEM medium supplemented with 10% FCS and penicillin/streptomycin (100 U/ml/[…]).
# as §1
# (§4) Primary cell cultures of human normal melanocytes were prepared from human foreskin. In order to determine the effect of compound IIa-2 on cell viability of melanocytes and fibroblasts, different concentration of IIa-2 were added to the cell samples. The measure of cell viability was performed in the same way as for FIG. 1. Results are expressed as the percentage of living cells relatively to the number of living cells in the presence of DMSO, as for FIG. 1.
# [9] = test system: A375 melanoma cell line; experiment: Western blot, mechanism of death: PARP cleavage (apoptosis) and LCII/LCIII conversion (autophagy) (FIG. 4); settings: IIa-2 at 10 μM
# Description: Proteins were extracted in Fisher buffer containing TRIS-HCl pH 7.5 50 mM, NaCl 15 mM, Triton X-100 1% and proteases and phosphatases inhibitors. Briefly, cell lysates (30 μg) were separated by SDS-PAGE, transferred onto a PVDF membrane (Millipore, Molsheim, France) and then exposed to the appropriate antibodies. Proteins were visualized with the ECL system from Amersham (Arlington, Heights, Ill., USA). The western blots shown are representative of at least 3 independent experiments.
# [10] = test system: human normal melanocytes; experiment: Viability of normal melanocytes (FIG. 3); settings: different concentration of IIa-2
# Description: Normal human melanocytes (NHM) prepared from foreskins of newborns were grown under 5% CO2 at 37° C. in MCDB 153 (Sigma) supplemented with 2% FCS, bovine pituitary extract (10 μg/ml), PMA (8 nM), bFGF (1 ng/ml), insulin (5 μg/ml), hydrocortisone (0.5 μg/ml), forskolin (10 μM), gentamicin (20 μg/ml), penicillin/streptomycin/amphotericin B (100 U/ml) (Invitrogen).
# as §1, §4
Compound,cell viability [1],cell viability [2],cell viability [3],cell viability [4],cell viability (percentage of cells alive relatively to DMSO) [5],cell viability [6],cell viability [7],cell viability of normal cells (percentage of living cells relatively to DMSO) [8],mechanism of death: PARP cleavage (apoptosis) and LCII/LCIII conversion (autophagy) [9],cell viability of normal cells (percentage of living cells relatively to DMSO) [10]
"CCCCCCCCc1ccc(S(=O)(=O)Nc2cccc(-c3csc(NC(C)=O)n3)c2)cc1 [IIIa-3, N-(4-(3-((4-octylphenyl)sulfonamido)phenyl)thiazol-2-yl)acetamide]",much more active,viability decrease in the same range than the standard BCR-ABL inhibitor Imatinib,still very active,strong activity,very active,very high activity,strong activity,–,–,–
"CCCCCCc1ccc(S(=O)(=O)Nc2cccc(-c3csc(NC(C)=O)n3)c2)cc1 [IIIa-1, N-(4-(3-((4-hexylphenyl)sulfonamido)phenyl)thiazol-2-yl)acetamide]",much more active,viability decrease in the same range than the standard BCR-ABL inhibitor Imatinib,still very active,strong activity,very active,very high activity,strong activity,–,–,–
"CCCCCCC#Cc1ccc(S(=O)(=O)Nc2cccc(-c3csc(NC(C)=O)n3)c2)cc1 [IIa-2, N-(4-(3-((4-(oct-1-yn-1-yl)phenyl)sulfonamido)phenyl)thiazol-2-yl)acetamide]",much more active; also recorded: almost total mortality,viability decrease in the same range than the standard BCR-ABL inhibitor Imatinib,–,strong activity,very active,very high activity; also recorded: total cell death,strong activity,no effect,induced both apoptosis and autophagy cellular deaths,no effect
"CCCS(=O)(=O)Nc1ccc(F)c(C(=O)c2c[nH]c3ncc(-c4ccc(Cl)cc4)cc23)c1F [PLX4032, reference compound]",–,–,–,–,–,–,looses most activity,–,only apoptosis is induced,–
"Nc1ccn([C@@H]2O[C@H](CO)[C@@H](O)C2(F)F)c(=O)n1 [Gemcitabine, reference compound]",–,–,inactive,–,–,–,–,–,–,–
